We go through five molecules from ChEMBL document CHEMBL1133725, “Modeling of kappa-opioid receptor/agonists interactions using pharmacophore-based and docking simulations” (J Med Chem, 2000).

For test [1], the target named is T1, Kappa-type opioid receptor (Cavia porcellus, UniProt P41144). The test is described as follows: Inhibition of [3H]U-69593 binding to Opioid receptor kappa 1 in guinea pig brain homogenates. It is filed as tissue-based.
Test [2] addresses T1, Kappa-type opioid receptor. The experiment in a line: Inhibition of [3H]diprenorphine binding to Opioid receptor kappa 1 in guinea pig cerebellar fraction.
Test [3] deals with T1, Kappa-type opioid receptor. The test is described as follows: Inhibition of [3H]EKC binding to Opioid receptor kappa 1 in guinea pig forebrain.

pKi: −log10 of the molar value.

T1 sequence (P41144 whole entry): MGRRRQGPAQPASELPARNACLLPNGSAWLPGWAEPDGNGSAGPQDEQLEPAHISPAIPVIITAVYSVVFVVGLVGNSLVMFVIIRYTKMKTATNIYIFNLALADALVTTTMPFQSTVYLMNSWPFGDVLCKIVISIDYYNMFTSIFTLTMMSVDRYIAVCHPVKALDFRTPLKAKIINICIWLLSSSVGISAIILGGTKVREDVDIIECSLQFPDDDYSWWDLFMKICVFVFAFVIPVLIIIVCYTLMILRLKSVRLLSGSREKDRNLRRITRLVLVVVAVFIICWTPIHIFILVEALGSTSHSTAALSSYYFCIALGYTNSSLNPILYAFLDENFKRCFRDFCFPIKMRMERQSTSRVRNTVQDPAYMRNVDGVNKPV

As usually defined, the pKi is −log10 of the Ki, conventionally taken in molar units. Read a low pKi as a high Ki. Turning to `O=C1N(c2ccc(Cl)c(Cl)c2)CCCN1[C@H](CN1CCCC1)c1ccccc1`, in test [1], the pKi is 9.38. On the same count and under the same terms, as for `O=C([C@@H]1CCc2cc(Cl)c(Cl)cc21)N1CCSC[C@H]1CN1CCCC1`, the figure is 9.36; as for `CN1CCCC1[C@@H]1CCCCN1C(=O)Cc1ccc(Cl)c(Cl)c1` (stereo not given in full), 9.48.

For the molecule `COC(=O)[C@]1(c2ccccc2)C[C@@H]1CN1CC[C@@]2(C)c3cc(O)ccc3CC1[C@@H]2C`, in test [2], the pKi was 6.62. Consider `O=C1[C@@H](c2ccc(Cl)c(Cl)c2)CCN1[C@H]1CCCC[C@@H]1N1CCCC1`, for which, in test [3], the negative logarithm of the Ki (pKi) is 8.00.
